In PMC11237774, “On-target, dual aminopeptidase inhibition provides cross-species antimalarial activity” (mBio, 2024):
Where two headings read alike, the source gives them in different places. Each block holds one compound with its values, some of them ahead of it.

Key:
[1] = system: PfNF54-s16-GFP mature (V) stage gametocytes; assay: Image-based gametocyte viability assay; assay type: cell-based, P. falciparum; settings: Plasmodium falciparum, 72 h, read-out: IC50 Mature-stage Gametocytes (mean ± SD)
Experimental: (§1) Viability assays were performed as described previously ([32], [33]) against PfNF54-s16-GFP early(I–III), late (IV–V), and mature (V) stage gametocytes. Gametocytes were assessed at the appropriate time points following gametogenesis; early stage (day 2), late stage (day 8), and mature stage (day 12). Compounds diluted in 4% DMSO were transferred into 384-well imaging plates; gametocytes prepared as described previously (35) were added, and plates were incubated for 72 h in 5% CO2, 5% O2, and 60% humidity at 37°C. After 72 h incubation, 5 µL of MitoTracker Red CMH2XRos in phosphate buffered saline (PBS) was added per well, and plates were incubated overnight. Image acquisition and analysis were undertaken on the Opera QEHS micro-plate confocal imaging system. An Acapella-based script using the CMH2XRos fluorescent signal and the GFP-designated object quantifying viable stage-dependent parasite morphology identified gametocytes. Gametocyte viability was calculated as a percentage of the positive (5 µM puromycin) and negative (0.4% DMSO) controls. IC50 values were calculated using a 4-parameter log dose, non-linear regression analysis, with sigmoidal dose response (variable slope) curve fit using GraphPad Prism (ver 4.0). No constraints were used in the curve fit. […] Experiments were performed as two or three biological replicates in duplicate.

[2] = system: PfNF54-s16-GFP late (IV–V) stage gametocytes; assay: Image-based gametocyte viability assay; assay type: cell-based, P. falciparum; settings: Plasmodium falciparum; stages IV–V, 72 h; read-out: IC50 Late-stage Gametocytes (mean ± SD)
Experimental: as §1

[3] = system: PfNF54-s16-GFP early (I–III) stage gametocytes; assay: Image-based gametocyte viability assay; assay type: cell-based, P. falciparum; settings: Plasmodium falciparum, 72 h, read-out: IC50 Early-stage Gametocytes (mean ± SD)
Experimental: Viability assays were performed as described previously ([32], [33]) against PfNF54-s16-GFP early(I–III), late (IV–V), and mature (V) stage gametocytes. Gametocytes were assessed at the appropriate time points following gametogenesis; early stage (day 2), late stage (day 8), and mature stage (day 12). Compounds diluted in 4% DMSO were transferred into 384-well imaging plates; gametocytes prepared as described previously (35) were added, and plates were incubated for 72 h in 5% CO2, 5% O2, and 60% humidity at 37°C. After 72 h incubation, 5 µL of MitoTracker Red CMH2XRos in phosphate buffered saline (PBS) was added per well, and plates were incubated overnight. Image acquisition and analysis were undertaken on the Opera QEHS micro-plate confocal imaging system. An Acapella-based script using the CMH2XRos fluorescent signal and the GFP-designated object quantifying viable stage-dependent parasite morphology identified gametocytes. Gametocyte viability was calculated as a percentage of the positive (5 µM puromycin) and negative (0.4% DMSO) controls. IC50 values were calculated using a 4-parameter log dose, non-linear regression analysis, with sigmoidal dose response (variable slope) curve fit using GraphPad Prism (ver 4.0). No constraints were used in the curve fit. Chloroquine, artesunate, pyronaridine, pyrimethamine, dihydroartemisinin (DHA), and methylene blue were used as control compounds. Experiments were performed as two or three biological replicates in duplicate.

[4] = system: MMV1557817-resistant parasites; assay: 72 h killing assay, MMV1557817-resistant parasites versus parental Dd2; assay type: cell-based, P. falciparum
[5] = system: P. falciparum Dd2 parasites; assay: Fractional inhibitory concentration, artemisinin and MMV1557817 interaction; assay type: cell-based
Experimental: Fractional inhibitory concentrations (FIC) were determined as previously described ([44]). […] The FIC for each drug was determined by EC50 of drug in a mixture/EC50 of drug alone, and the sum of FIC was determined by the addition of the two individual FIC values. Synergistic FIC is described as <1, additive = 1 < 2, and antagonism > 2 ([44]).

[6] = system: P. falciparum clinical isolates; assay: Ex vivo drug susceptibility assay (schizont maturation) on clinical isolates; assay type: cell-based
Experimental: (§2) Plasmodium isolates were collected from patients attending public health clinics in Timika (Papua, Indonesia), a region endemic for multidrug-resistant strains of P. vivax and P. falciparum ([38][–][40]). Patients with symptomatic malaria presenting to an outpatient facility were recruited into the study if infected with either P. falciparum or P. vivax, with a parasitemia of between 2,000 µL^−1 and 80,000 µL^−1, and the majority (>60%) of asexual parasites at the ring stage of development. Venous blood (5 mL) was collected by venipuncture, and after removal of patient white blood cells using Plasmodipur filters (EuroProxima B.V., The Netherlands), packed infected red blood cells (iRBCs) were used for the ex vivo drug susceptibility assay.
(§3) Drug plates were pre-dosed by diluting the compounds in 50% methanol followed by lyophilization and storage at 4°C. Drug susceptibility of P. vivax and P. falciparum isolates was measured using a protocol modified from the WHO microtest as described previously ([40], [41]). […] A candle jar was used to mature the parasites at 37.0°C for 35–56 h. […] Thick blood films made from each well were stained with 5% Giemsa solution for 30 min and examined microscopically. The number of schizonts per 200 asexual-stage parasites was determined for each drug concentration and normalized to the control well without drug. The dose response data were analyzed using non-linear regression analysis, and the EC50 value was derived using an inhibitory sigmoid Emax model (In Vitro Analysis and Reporting Tool [IVART] [42, 43]).

[7] = system: P. vivax clinical isolates; assay: as above; assay type: cell-based
Experimental: as §2, §3

Pf3D7 = assay: Parasite reduction ratio assay; assay type: cell-based, P. falciparum
Experimental: Assays were performed as described previously with some alterations ([37]). […] Specifically, media containing compound was placed in wells every 24 h for up 120 h. […] Parasite growth was measured at day 21 using SYBR green I as described above. Fluorescence was used to determine at what treatment day wells became positive for growth when compared with the well before it; greater than double the fluorescence was determined to be a positive well. […] Experiments were performed in two or three biological replicates in quadruplicate.

[8] = Plasmodium falciparum, ex vivo clinical isolates, n = 15, read-out: P. falciparum median EC50 (range)
[9] = Plasmodium vivax, ex vivo clinical isolates, n = 6, read-out: P. vivax median EC50 (range)
[10] = ex vivo clinical isolates, n = 6, read-out: P. vivax median EC50 (range)

SMILES: C[C@H]1[C@@H](O)O[C@@H]2O[C@@]3(C)CC[C@H]4[C@H](C)CC[C@@H]1[C@@]24OO3 [DHA, dihydroartemisinin]
IC50 [1]: 103 ± 30 nM | IC50 [2]: 35 ± 12 nM | IC50 ([3]; stages I–III): 16 ± 2 nM

SMILES: C[C@@H]1CC[C@H]2[C@@H](C)C(=O)O[C@@H]3O[C@@]4(C)CC[C@@H]1[C@]32OO4 [artemisinin, reference compound]
change of susceptibility compared with parental Dd2 [4]: marginally but significantly sensitized | artemisinin mean FIC ± SEM ([5]; ratio MMV1557817:artemisinin 0:5): 1.00 ± 0.12 | artemisinin mean FIC ± SEM ([5]; ratio MMV1557817:artemisinin 1:4): 0.75 ± 0.07 | artemisinin mean FIC ± SEM ([5]; ratio MMV1557817:artemisinin 2:3): 0.37 ± 0.06 | artemisinin mean FIC ± SEM ([5]; ratio MMV1557817:artemisinin 3:2): 0.16 ± 0.03 | artemisinin mean FIC ± SEM ([5]; ratio MMV1557817:artemisinin 4:1): 0.06 ± 0.01

EC50 [6, 8]: 10 nM | EC50 [7, 9]: 11.2 nM | EC50 [7, 10]: 11 nM
SMILES: OC(c1cc(C(F)(F)F)nc2c(C(F)(F)F)cccc12)C1CCCCN1 (stereo not drawn) [mefloquine]

SMILES: CN(C)c1ccc2nc3ccc(=[N+](C)C)cc-3sc2c1 [Methylene Blue, methylene blue]
IC50 [1]: 63 ± 26 nM | IC50 [2]: 52 ± 2 nM | IC50 ([3]; stages I–III): 110 ± 4 nM

EC50 [6, 8]: 60.8 nM | EC50 ([6]; ex vivo clinical isolates, n = 15, read-out: P. falciparum median EC50 (range)): 61 nM | EC50 [7, 9]: 46.6 nM | EC50 [7, 10]: 47 nM
SMILES: Clc1ccc2c(N3CCN(CCCN4CCN(c5ccnc6cc(Cl)ccc56)CC4)CC3)ccnc2c1 [piperaquine]

SMILES: COc1ccc2nc3cc(Cl)ccc3c(Nc3cc(CN4CCCC4)c(O)c(CN4CCCC4)c3)c2n1 [pyronaridine]
IC50 [1]: 1250 ± 120 nM | IC50 [2]: 2280 ± 679 nM | IC50 ([3]; stages I–III): 67 ± 7 nM

SMILES: CCN(CC)CCCC(C)Nc1ccnc2cc(Cl)ccc12 (stereo not drawn) [chloroquine]
EC50 ([6]; Plasmodium falciparum, read-out: P. falciparum median EC50 (range), ex vivo clinical isolates, n = 15): 65 nM | EC50 ([6]; read-out: P. falciparum median EC50 (range), ex vivo clinical isolates, n = 15, listed as CQ): 64.8 nM | EC50 ([7]; Plasmodium vivax, read-out: P. vivax median EC50 (range), ex vivo clinical isolates, n = 6): 36 nM | EC50 ([7]; read-out: P. vivax median EC50 (range), ex vivo clinical isolates, n = 6, listed as CQ): 36.4 nM | IC50 [3]: 157 ± 3.5 nM | 99.9% PCT (Pf3D7; Pf3D7, 10× EC50): 53 h | Lag phase (Pf3D7; Pf3D7, 10× EC50): 0 h | Log (PRR) (Pf3D7; Pf3D7, 10× EC50, over one cycle): 3.9 ± 0.2

SMILES: COc1ccc(C[C@H](N)C(=O)N[C@H]2[C@@H](O)[C@H](n3cnc4c(N(C)C)ncnc43)O[C@@H]2CO)cc1 [puromycin]
IC50 [1]: 73 ± 24 nM | IC50 [2]: 94 ± 5 nM | IC50 ([3]; stages I–III): 163 ± 18 nM
